Where a chain is given by its changes, count along the chain named. Where two headings read alike, the source gives them in different places.
Columns and labels:
FIH = conditions: ref [22], [23]; cited from earlier work
R132H IDH1 [1] = molecular target: T1, R132H IDH1 (Homo sapiens, UniProt O75874, R132H); experiment: Absorbance assay, IC50 determination; type: biochemical; parameters: made in house; host or cells: Escherichia coli BL21(DE3) pLyS
Procedure: (§1) The reactivity of WT IDH1/2 and oncogenic IDH1/2 variants was assayed at ambient temperature by continuously monitoring the concentration-dependent change in absorbance ([…]) of NADPH using a PheraStar FS or a CLARIOstar Plus plate reader (BMG Labtech). Enzyme reactions (60 μL total reaction volume) were performed in clear 384-well UV-STAR plates (Greiner Bio-one, #781801). Compounds were dispensed using a CyBio SDW-CW CyBi-Well Simultaneous Pipettor and assay started using a ThermoFisher Multidrop Combi reagent dispenser.
(§2) Final assay concentrations were as follows: 30 nM IDH1/2 variant and 50 μM NADPH. […] Reactions were performed as technical quadruplicates, and all assays were carried out in two independent duplicates. GraphPad Prism (version 5.04) was used for data analysis and to determine the IC50 values.

WT IDH1 [2] = molecular target: T2, WT IDH1 (Homo sapiens, UniProt O75874); experiment: Absorbance assay, WT activity in the presence of equimolar DL-isocitrate (inhibition); type: biochemical; conditions: […] isocitrate and […] test compound, 75 μM NADP+, 2.0 nM WT IDH1
T2 construct: made in house; host or cells: Escherichia coli BL21(DE3) pLyS
T2 sequence (O75874 whole entry): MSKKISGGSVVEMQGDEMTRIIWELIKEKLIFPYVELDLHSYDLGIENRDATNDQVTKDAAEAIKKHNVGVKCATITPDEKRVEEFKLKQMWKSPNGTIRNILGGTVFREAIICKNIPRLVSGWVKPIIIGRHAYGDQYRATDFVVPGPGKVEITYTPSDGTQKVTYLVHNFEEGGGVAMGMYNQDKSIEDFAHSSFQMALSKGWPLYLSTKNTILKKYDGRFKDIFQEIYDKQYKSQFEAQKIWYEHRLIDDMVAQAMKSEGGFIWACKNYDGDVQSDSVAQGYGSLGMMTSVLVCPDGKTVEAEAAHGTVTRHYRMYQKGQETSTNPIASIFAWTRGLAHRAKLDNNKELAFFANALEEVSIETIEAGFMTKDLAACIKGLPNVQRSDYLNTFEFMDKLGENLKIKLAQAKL
Procedure, shortened: (§3)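 Quadruplicate technical repeats are run. Reaction start is by reagent dispenser.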

WT IDH2 [3] = molecular target: T3, WT IDH2 (Homo sapiens, UniProt P48735); experiment: as above; type: biochemical; conditions: […] isocitrate and […] test compound, 75 μM NADP+, 2.0 nM WT IDH2
T3 construct: made in house; host or cells: Sf21 insect cells (cell pellets prepared at Evotec)
T3 sequence (P48735 40-452): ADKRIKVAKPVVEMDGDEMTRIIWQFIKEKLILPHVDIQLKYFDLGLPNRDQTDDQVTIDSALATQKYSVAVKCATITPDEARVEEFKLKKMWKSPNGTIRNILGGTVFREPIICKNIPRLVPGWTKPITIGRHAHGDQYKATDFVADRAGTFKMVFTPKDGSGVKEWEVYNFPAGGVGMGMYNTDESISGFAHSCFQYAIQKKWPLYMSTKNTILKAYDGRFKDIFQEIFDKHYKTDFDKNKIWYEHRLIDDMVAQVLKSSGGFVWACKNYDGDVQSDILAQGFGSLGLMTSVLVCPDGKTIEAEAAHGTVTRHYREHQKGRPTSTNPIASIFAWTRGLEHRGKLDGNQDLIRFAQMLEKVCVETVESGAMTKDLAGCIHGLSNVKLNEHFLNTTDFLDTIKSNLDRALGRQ
Procedure, shortened: as §3

WT IDH1 [4] = molecular target: T2, WT IDH1; experiment: Absorbance assay, substrate activity in the absence of DL-isocitrate; type: biochemical; conditions: no DL-isocitrate; […] test compound, 75 μM NADP+, 2.0 nM WT IDH1; compared to DL-isocitrate
Procedure, shortened: as §3

WT IDH2 [5] = molecular target: T3, WT IDH2; experiment: as above; type: biochemical; conditions: no DL-isocitrate; […] test compound, 75 μM NADP+, 2.0 nM WT IDH2; compared to DL-isocitrate
Procedure, shortened: as §3

R132H IDH1 [6] = molecular target: T1, R132H IDH1; experiment: Absorbance assay, variant activity in the presence of equimolar 2OG (inhibition screen); type: biochemical; parameters: made in house; host or cells: Escherichia coli BL21(DE3) pLyS; conditions: […] 2OG and […] test compound, 0.03 μM R132H IDH1, 50 μM NADPH
Procedure, shortened: as §3

R172K IDH2 [7] = molecular target: T4, R172K IDH2 (Homo sapiens, UniProt P48735, R172K); experiment: Absorbance assay, IC50 determination; type: biochemical
T4 construct: made in house; host or cells: Sf21 insect cells (cell pellets prepared at Evotec)
T4 sequence (P48735 40-452 R172K): T3 sequence (P48735 40-452) with R133K
Procedure: as §1, §2

R140Q IDH2 [8] = molecular target: T5, R140Q IDH2 (Homo sapiens, UniProt P48735, R140Q); experiment: Absorbance assay, IC50 determination; type: biochemical
T5 construct: made in house; host or cells: Sf21 insect cells (cell pellets prepared at Evotec)
T5 sequence (P48735 40-452 R140Q): T3 sequence (P48735 40-452) with R101Q
Procedure: as §1, §2

R172K IDH2 [9] = molecular target: T4, R172K IDH2; experiment: Absorbance assay, variant activity in the presence of equimolar 2OG (inhibition screen); type: biochemical; conditions: for activity [%] (%-substrate conversion after 20 min incubation): 1.0 mM 2OG and 1.0 mM test compound, 0.03 μM R172K IDH2, 50 μM NADPH
Procedure, shortened: as §3

R140Q IDH2 [10] = molecular target: T5, R140Q IDH2; experiment: as above; type: biochemical; conditions: for activity [%] (%-substrate conversion after 20 min incubation): 6.0 mM 2OG and 6.0 mM test compound, 0.03 μM R140Q IDH2, 50 μM NADPH
Procedure, shortened: as §3

R172K IDH2 [11] = molecular target: T4, R172K IDH2; experiment: Absorbance assay (NADPH consumption), substrate turnover in the absence of 2OG; type: biochemical; conditions: no 2OG; 1.0 mM test compound, 0.03 μM R172K IDH2, 50 μM NADPH; 2OG = 100
Procedure, shortened: as §3

R140Q IDH2 [12] = molecular target: T5, R140Q IDH2; experiment: as above; type: biochemical; conditions: no 2OG; 6.0 mM test compound, 0.03 μM R140Q IDH2, 50 μM NADPH; 2OG = 100
Procedure, shortened: as §3

R132H IDH1 [13] = molecular target: T1, R132H IDH1; experiment: as above; type: biochemical; parameters: made in house; host or cells: Escherichia coli BL21(DE3) pLyS; conditions: no 2OG; […] test compound, 0.03 μM R132H IDH1, 50 μM NADPH; 2OG = 100
Procedure, shortened: as §3

[14] = test system: glutamic oxaloacetic aminotransferase; parameters: method as in earlier work; conditions: ref [66]; cited from earlier work
AspH = conditions: ref [22], [23]; cited from earlier work

T1 sequence (O75874 whole entry R132H): as the sequence (O75874 whole entry) above, with R132H counted along it

| activity [%] (%-substrate conversion after 20 min incubation) (WT IDH1 [2]) | activity [%] (%-substrate conversion after 20 min incubation) (WT IDH2 [3]) | activity [%] (%-substrate conversion after 20 min incubation) (WT IDH1 [4]) | activity [%] (%-substrate conversion after 20 min incubation) (WT IDH2 [5]) | activity [%] (%-substrate conversion after 20 min incubation) (R132H IDH1 [6]) | activity [%] (%-substrate conversion after 20 min incubation) (R172K IDH2 [9]) | activity [%] (%-substrate conversion after 20 min incubation) (R140Q IDH2 [10]) | SMILES | inhibition of FIH (FIH) | other results |
| --- | --- | --- | --- | --- | --- | --- | --- | --- | --- |
| 98±2 | 96±2 | < 10 | < 10 | < 10 | < 10 | < 10 | CC1(C)c2ccccc2-c2ccc(CC(CC(=O)O)C(=O)C(=O)O)cc21 (racemic) [compound 11] | potent inhibitor | IC50 (R132H IDH1 [1]; […] 2OG, 0.03 μM enzyme, 50 μM NADPH): ~1100 µM; IC50 (R172K IDH2 [7]; 1.0 mM 2OG, 0.03 μM enzyme, 50 μM NADPH): ~84 µM; IC50 (R140Q IDH2 [8]; 6.0 mM 2OG, 0.03 μM enzyme, 50 μM NADPH): ~1650 µM |
| 93 ± 2 | 93 ± 1 |  |  | < 10 | 13 ± 4 | 12 ± 7 | O=C(O)CNC(=O)C(=O)O [NOG, N-oxalylglycine, reference compound] |  | activity [%] (%-substrate conversion after 20 min incubation) (R172K IDH2 [11]): < 10%; activity [%] (%-substrate conversion after 20 min incubation) (R140Q IDH2 [12]): < 10%; IC50 (R132H IDH1 [1]): ~188 µM; IC50 (R172K IDH2 [7]): ~161 µM; IC50 (R140Q IDH2 [8]): ~621 µM; activity [%] (%-substrate conversion after 20 min incubation) (R132H IDH1 [13]): < 10%; inhibition (R172K IDH2 [9]; equimolar 2OG (1.0 mM)): ≥ 90%; inhibition (R140Q IDH2 [10]; equimolar 2OG (6.0 mM)): ≥ 90% |
| 106±4 | 101±7 | < 10 | < 10 | 118 ± 20 | 106 ± 6 | 117 ± 6 | CC(C)(CC(=O)C(=O)O)C(=O)O [compound 13, 4,4-dimethyl-2OG] | does not inhibit | substrate efficiency compared with 2OG [14]: less efficient substrate; inhibition of AspH (AspH): efficient inhibitor |

From article PMC9939733 (The Journal of Biological Chemistry, 2023)
